{
  "source": "patent US4962113A",
  "about": "“Pyridinium derivatives, their production and use” (Takeda Chemical Industries, Ltd, priority 1987, dated 1990)",
  "key": {"[1]": {"tested_on": "Reversed Passive Arthus reaction", "test": "Reversed Passive Arthus reaction", "assay_type": "in vivo, rat (Sprague-Dawley)", "conditions": "oral, 6.25 mg/kg, one hour before antigen", "protocol": "Under ether anesthesia, the hair of the back of Sprague-Dawley male rats (7-week old, about 250 g body weight) was cut, and 0.5 ml of a 5% solution of gum arabia of a test compound relative to 100 g of the body weight of the animals was orally administered (one hour before injection of antigen). An antigen, egg albumin dissolved in physiological saline (5 mg/kg) was administered through the tail vein. Immediately, 0.1 ml each of a rabbit anti-egg albumin serum (containing 6 mg protein antibody/ml) was administered intracutaneously at one spot each of left- and right-hand sides of the back of rats. Three hours later, 1 ml of physiological saline containing 1% of Evans blue was given intravenously, and 30 minutes later, the skin of the animals was excised, and the area (mm^2) of blue spots was measured. The results were compared with those of the control group, and the inhibitory ratio was determined."}, "[2]": {"tested_on": "platelet aggregation (PAF)", "test": "Inhibitory action on PAF-induced rabbit platelet aggregation", "assay_type": "cell-based", "conditions": "Oryctolagus cuniculus, read-out: inhibitory percentage (platelet aggregation)", "outline": "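Male rabbit citrated PRP, adjusted with PPP to about 500,000 platelets/μl, was stirred 2 min at 37 °C, then with test sample for 2 min before PAF addition. Aggregation was followed by aggregometry as maximum percent light transmission.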"}, "PAF-induced hypotension": {"tested_on": "PAF-induced hypotension", "test": "Inhibitory action on PAF-induced hypotension in rats", "assay_type": "in vivo, rat (Sprague-Dawley)", "conditions": "Rattus norvegicus, read-out: Inhibitory Rate (Lowering of Blood Pressure); for inhibition in vivo at 0.01 mg/kg / inhibition in vivo at 0.03 mg/kg / inhibition in vivo at 0.1 mg/kg: iv; for inhibition in vivo at 1 mg/kg / inhibition in vivo at 3 mg/kg / inhibition in vivo at 10 mg/kg: oral", "outline": "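Male Sprague-Dawley rats of about 250 g had cannulas placed in the femoral artery, for blood pressure recording via a pressure transducer, and in the femoral vein, for drug dosing. The hypotensive response to intravenous PAF (1 μg/kg) was measured first. Test samples were then given intravenously or orally, and PAF was given again. Percent inhibition compares the PAF-induced pressure drop (Δ mmHg) after treatment with the drop before treatment.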"}},
  "note": "Read-outs that look alike come from different tables or passages of the source.",
  "data": [
    {"smiles": "CCC[n+]1cc(Br)cc(C(=O)N(CCOC(=O)NCCOC(=O)Nc2cccc3ccccc23)c2ccccc2)c1", "note": "[Production Example 10, 5-bromo-3-[N-[2-[2-(1-naphthylcarbamoyloxy)ethyl]carbamoyloxy]ethyl-N-phenyl]carbamoyl-1-propylpyridinium chloride]", "values": [
      {"measurement": "preventive ratio", "setting": "[1]", "value": 57, "unit": "%"},
      {"measurement": "inhibition at 3 µM", "setting": "[2]; 3 × 10^-6 M", "value": 100, "unit": "%"},
      {"measurement": "inhibition at 0.3 µM", "setting": "[2]; 3 × 10^-7 M", "value": 91, "unit": "%"},
      {"measurement": "inhibition in vivo at 0.01 mg/kg", "setting": "PAF-induced hypotension; 1 hr.", "value": 65, "unit": "%"},
      {"measurement": "inhibition in vivo at 0.01 mg/kg", "setting": "PAF-induced hypotension; 2 hr.", "value": 60, "unit": "%"},
      {"measurement": "inhibition in vivo at 0.01 mg/kg", "setting": "PAF-induced hypotension; 4 hr.", "value": 53, "unit": "%"},
      {"measurement": "inhibition in vivo at 0.01 mg/kg", "setting": "PAF-induced hypotension; 6 hr.", "value": 47, "unit": "%"},
      {"measurement": "inhibition in vivo at 0.01 mg/kg", "setting": "PAF-induced hypotension; 8 hr.", "value": 36, "unit": "%"},
      {"measurement": "inhibition in vivo at 0.03 mg/kg", "setting": "PAF-induced hypotension; 1 hr.", "value": 97, "unit": "%"},
      {"measurement": "inhibition in vivo at 0.03 mg/kg", "setting": "PAF-induced hypotension; 2 hr.", "value": 84, "unit": "%"},
      {"measurement": "inhibition in vivo at 0.03 mg/kg", "setting": "PAF-induced hypotension; 4 hr.", "value": 65, "unit": "%"},
      {"measurement": "inhibition in vivo at 0.03 mg/kg", "setting": "PAF-induced hypotension; 6 hr.", "value": 55, "unit": "%"},
      {"measurement": "inhibition in vivo at 0.03 mg/kg", "setting": "PAF-induced hypotension; 8 hr.", "value": 47, "unit": "%"},
      {"measurement": "inhibition in vivo at 0.1 mg/kg", "setting": "PAF-induced hypotension; 1 hr.", "value": 100, "unit": "%"},
      {"measurement": "inhibition in vivo at 0.1 mg/kg", "setting": "PAF-induced hypotension; 2 hr.", "value": 94, "unit": "%"},
      {"measurement": "inhibition in vivo at 0.1 mg/kg", "setting": "PAF-induced hypotension; 4 hr.", "value": 89, "unit": "%"},
      {"measurement": "inhibition in vivo at 0.1 mg/kg", "setting": "PAF-induced hypotension; 6 hr.", "value": 81, "unit": "%"},
      {"measurement": "inhibition in vivo at 0.1 mg/kg", "setting": "PAF-induced hypotension; 8 hr.", "value": 76, "unit": "%"},
      {"measurement": "inhibition in vivo at 0.01 mg/kg", "setting": "PAF-induced hypotension; 5 min, i.v., 5 min.", "value": 79, "unit": "%"},
      {"measurement": "inhibition in vivo at 0.03 mg/kg", "setting": "PAF-induced hypotension; 5 min, i.v., 5 min.", "value": 100, "unit": "%"},
      {"measurement": "inhibition in vivo at 0.1 mg/kg", "setting": "PAF-induced hypotension; 5 min, i.v., 5 min.", "value": 100, "unit": "%"},
      {"measurement": "inhibition in vivo at 1 mg/kg", "setting": "PAF-induced hypotension; 1 hr.", "value": 33, "unit": "%"},
      {"measurement": "inhibition in vivo at 1 mg/kg", "setting": "PAF-induced hypotension; 2 hr.", "value": 51, "unit": "%"},
      {"measurement": "inhibition in vivo at 1 mg/kg", "setting": "PAF-induced hypotension; 4 hr.", "value": 56, "unit": "%"},
      {"measurement": "inhibition in vivo at 1 mg/kg", "setting": "PAF-induced hypotension; 6 hr.", "value": 59, "unit": "%"},
      {"measurement": "inhibition in vivo at 1 mg/kg", "setting": "PAF-induced hypotension; 8 hr.", "value": 47, "unit": "%"},
      {"measurement": "inhibition in vivo at 3 mg/kg", "setting": "PAF-induced hypotension; 1 hr.", "value": 79, "unit": "%"},
      {"measurement": "inhibition in vivo at 3 mg/kg", "setting": "PAF-induced hypotension; 2 hr.", "value": 83, "unit": "%"},
      {"measurement": "inhibition in vivo at 3 mg/kg", "setting": "PAF-induced hypotension; 4 hr.", "value": 87, "unit": "%"},
      {"measurement": "inhibition in vivo at 3 mg/kg", "setting": "PAF-induced hypotension; 6 hr.", "value": 83, "unit": "%"},
      {"measurement": "inhibition in vivo at 3 mg/kg", "setting": "PAF-induced hypotension; 8 hr.", "value": 81, "unit": "%"},
      {"measurement": "inhibition in vivo at 10 mg/kg", "setting": "PAF-induced hypotension; 1 hr.", "value": 96, "unit": "%"},
      {"measurement": "inhibition in vivo at 10 mg/kg", "setting": "PAF-induced hypotension; 2 hr.", "value": 96, "unit": "%"},
      {"measurement": "inhibition in vivo at 10 mg/kg", "setting": "PAF-induced hypotension; 4 hr.", "value": 96, "unit": "%"},
      {"measurement": "inhibition in vivo at 10 mg/kg", "setting": "PAF-induced hypotension; 6 hr.", "value": 93, "unit": "%"},
      {"measurement": "inhibition in vivo at 10 mg/kg", "setting": "PAF-induced hypotension; 8 hr.", "value": 90, "unit": "%"}
    ]}
  ]
}
